Laboratory results reported in EP0103030A1, “Polycyclic fused pyrazole compounds, useful as anti-inflammatory agents, and preparation thereof” (STERLING DRUG INC., priority 1982, dated 1984).

How the values were obtained:
Assay type in all cases: in vivo
Mature female rats = assay: Endocrine profile (thymus, adrenal and body weight after 2 weeks oral medication); conditions: compared with the controls
Protocol: The test procedures used to determine the biological activities of the compounds of the invention were carried out as follows: • Endocrine Profile: Mature female rats with an average body weight of 202 g and a body weight range of 15 g or less were medicated orally with test compound for 2 weeks. The test compound was prepared as a solution or suspension in 1% gum tragacanth or 0.75% methyl cellulose. On the day following the last medication, the rats were killed and the thymus and adrenal of each rat were removed, cleaned, and weighed. Body weights and food consumptions were also recorded.

Male rats = assay: Anti-inflammatory activity (a-tocopherol pouch test)
Protocol: A rapid subcutaneous injection of 25 mL of air was made between the scapulae of each rat. […] The test compound was administered in daily oral doses for 7 days beginning on the day of pouch formation. The compound to be tested was suspended in 1% gum tragacanth. Twenty-four hours after the last medication, the pouches were dissected free, and the fluid volume was measured. The inhibition of liquid exudate is a measure of the anti=inflammatory activity.

[1] = system: Mature male rats were bilaterally adrenalectomized; assay: Glycogenic activity (liver glycogen deposition test)
Text: Glycogenic Activity: Mature male rats were bilaterally adrenalectomized 5 days prior to the test. These rats were medicated orally with the test compound for 5 days. Seven hours after the last medication, the rats (which have been fasted overnight) were anesthetized with sodium pentobarbital and a portion of one lobe of the liver was removed and frozen on dry ice for subsequent glycogen determination.

Compound	reduction in adrenal weight (Mature female rats; dose level of 1 mg/kg) [%]	reduction in body weight gain (Mature female rats; dose level of 1 mg/kg) [%]	reduction in thymus weight (Mature female rats; dose level of 1 mg/kg) [%]	ED50 (Male rats; Rattus norvegicus, 168 h, daily oral doses for 7 days, male rats, inhibition of liquid exudate) [mg/kg]	anti-inflammatory activity by the a-tocopherol pouch test (Male rats; rats, general statement)	liver glycogen deposition value ([1]; dose level of 9 mg/kg/day x 5, oral, adrenalectomized male rats, vehicle 2.2 + 0.04 mg/g)	glucocorticoid activity by the liver glycogen deposition test ([1]; oral, rats, general statement)	reduction in adrenal weight (Mature female rats; dose level of 5 mg/kg) [%]	reduction in body weight gain (Mature female rats; dose level of 5 mg/kg) [%]	reduction in thymus weight (Mature female rats; dose level of 5 mg/kg) [%]	activity in the a-tocopherol pouch test (Male rats; dose level of 100 mg/kg, daily oral doses for 7 days, male rats)
CC12Cc3cnn(-c4ccc(F)cc4)c3C=C1CCC1OC3(CC=C12)C(=O)c1ccccc1C3=O (centres unmarked) [Compound I (R = F), 8'-(4-Fluorophenyl)-2',3',5',6',ll',lla'-hexahydro-lla'-methylspiro-2H-indene[2,3']-3H-pyrazolo[4",5":7',6']-naphtho-[2,1-b] pyran-1,3-dione]	56	129	61	10	anti-inflammatory activity	21.8 + 4.4 mg/g of tissue	oral glucocorticoid activity				
CC12Cc3cnn(-c4ccccc4)c3C=C1CCC1OC3(CC=C12)C(=O)c1ccccc1C3=O (centres unmarked) [Compound I (R = H), 2',3',5',6',11',11a'-Hexahydro-11a'-methyl-8'-phenylspiro 2H-indene[2,3']-3H-pyrazolo[4",5":7',6']naphtho[2,1-b] pyran-1,3-dione]								38	62	51	inactive
